Source: patent publication US20160129077A1, “Use of recombinant ganoderma immunoregulatory protein (rLZ-8) in preparation of drug for treating melanoma” (priority 2013, published 2016)
Like-named read-outs stand apart in the source and are kept apart here. Marks after values point to notes of the source that are not given here.

Legend:
[1] = tested on: B16-F10 lung metastases; assay: B16-F10 melanoma lung metastasis model (tail vein injection) in Kunming mice; assay type: in vivo; conditions: DTIC 2.5 mg/kg
Description: DMEM, fetal bovine serum, PBS, trypsin-EDTA, DMSO, Tris-HCl buffer with pH 7.6 for rinsing, 0.05% trypsin, rLZ-8, and DTIC.
After the mice were put to death, lungs of the dead mice were dissected out and the number of black spots on surfaces of the lungs, formed by an aggregation of metastasis cell, was counted, so as to calculate the inhibition rate of the drug against the growth of the lung metastasis as: inhibition rate=(an average metastasis number of the negative contrast group−an average metastasis number of the drug administrated group)/the average metastasis number of the negative contrast group×100%. A time and the number of the dead mouse in each experiment group were recorded in detail, especially during administrating the drug continuously, until the negative contrast group was completely dead; and then, the survival states of the mice in the experiment groups and the contrast groups were analyzed. A survival rate was calculated according to the number of the dead mice in the other groups when all the mice of the negative contrast group were dead, based on a formula that survival rate=(a total number of the mice−the number of the dead mice)/the total number of the mice.

[2] = tested on: B16F10 orthotopic tumor
Description: The mice were transplanted with a melanoma cells line B16-F10.
The mice melanoma cells B16-F10 were cultured in the DMEM containing 10% fetal bovine serum, at 37° C. in the CO2 thermostat incubator. 200 μl of B16-F10 cell suspension (containing 1×10^7 cells) was slowly subcutaneously injected into a dorsal-ventral side of the mouse through 1 ml syringe, so as to establish a model of mice transplanted with tumors. […] The rLZ-8 was injected once per day; the DTIC was continuously tail-intravenously injected for 5 days and injected for a second time after 3 weeks. During the experiment, living states of the mice were observed; the mice were weighed once every 7 days; blood samples were taken from tail veins of the mice every 2 weeks; volumes of the tumors, subcutaneously injected into the mice, were measured every 2 days; for each group, the tumors were dissected at an end of the experiment and weighed on the balance, with weights recorded. According to a formula that a tumor growth inhibition rate=(an average weight of the tumors of the physiological saline group−an average weight of the tumors of the drug administrated groups)/the average weight of the tumors of the physiological saline group, the inhibition rate of the rLZ-8 upon the growth of the orthotopic tumor was calculated.

[3] = tested on: metastatic melanoma; conditions: immune therapy; cited from earlier work
[4] = DTIC 2.5 mg/kg tail i.v., administration for 28 days
[5] = DTIC 2.5 mg/kg, administration for 56 days
[6] = DTIC 2.5 mg/kg, dead mice/animal number

Compound	Survival rate when all mice of the negative contrast group were dead ([1]; 87th / 95th day after injecting the tumors) [%]	Tumor metastases inhibition rate ([1]; administration for 28 days) [%]	Tumor metastases inhibition rate ([1]; administration for 56 days) [%]	Tumor volume [2, 4]	Tumor weight [2, 4] [g]	Tumor growth inhibition rate ([2]; DTIC 2.5 mg/kg, administration for 28 days)	Tumor growth inhibition rate [2, 5]	Tumor volume [2, 5]	Tumor weight [2, 5] [g]	Mortality rate (administration for 28 days) [2, 6]	Mortality rate (administration for 56 days) [2, 6]	Body leukocyte number ([2]; tumor-bearing mice, tail vein blood, anti-tumor treatment experiment (28/56 days))	Positive reaction rate [3]
CN(C)/N=N/c1[nH]cnc1C(N)=O [DTIC, Dacarbazine, reference compound]	10	32.04±1.27	58.43 ± 3.21	0.19 ± 0.09** mm^3	0.23 ± 0.12	81.26 ± 0.27^ %	64.42 ± 0.41^ %	0.73 ± 0.21* mm^3	0.87 ± 0.26	0/10	4/10	greatly decreased the body leukocyte number	
ipilimumab: anti-CTLA-4 antibody, immune therapy for metastatic melanoma													about 10.9%
